According to US20070270462A1, “8-hydroxyquinoline compounds for treating a polyglutamine (polyQ)-expansion disease” (priority 2005, published 2007):
Marks after values point to notes of the source that are not given here.

What was measured:
R6/2 mice [1] = test: Lateral ventricle area (striatal atrophy) in R6/2 mice; type: in vivo, mouse; details: 11-week old, oral CQ 30 mg/kg/day, versus sham treatment group
Procedure: (§1) A colony of transgenic mice strain R6/2 that is heterozygous for htt exon1 (containing 145 CAG repeats) was maintained, with founders originating and available from The Jackson Laboratory (Bar Harbor, Me., USA). Male transgenic R6/2 mice were bred with background strain (B6CBAFI/J) females. Genotyping was done according to Hockly et al, Brain Res Bull 61, 469-479, 2003. CQ in water was orally administered to mice at 30 mg/kg/day starting at 3 weeks of age and continued until the mice were deceased or sacrificed for tissues. Littermate R6/2 mice were gavaged with water vehicle alone. At the end of CQ treatment mice were anesthetized and transcardially perfused with PBS followed by 4% v/v paraformaldehyde. Blood glucose levels were determined after at least 8 hrs of fasting in 11-week old mice (n=6 for wild-type, n=4 for vehicle-treated R6/2, n=6 for CQ-treated R6/2 littermates) using a 2300 STAT Plus glucose analyzer (YSI, Yellowsonte, Ohio, USA). Fasting blood insulin levels in animals fasted for 8 hrs were measured using an Ultra Sensitive Rat Insulin ELISA Kit (Crystal Chem, Inc., Downers Grove, Ill., USA) according to manufacturer's instructions.
Plasma membrane integrity was evaluated using propidium iodide at 20 μg/ml final concentration. Approximately 200 cells transfected with the Htt^exon1-Q103-egf plasmid were counted for each treatment group 48 hr after transfection. […]

R6/2 mice [2] = test: Fasting blood insulin in R6/2 mice (ELISA); type: in vivo, mouse; details: 11-week old R6/2 mice
Procedure: as §1
Consistent with the blood glucose level was a reciprocal change in blood insulin levels.
Data are mean+s.e.m. n≧4 for each treatment group. *P<0.0004 for glucose, **P=0.0065 for insulin levels comparing vehicle and CQ-treated groups.

Htt exon1-Q25-egfp = test: Fluorescence microscopy of transfected PC12 cells expressing Htt exon1-Q25-egfp; type: cell-based; details: CQ 4 μM, 48 hours post-transfection
Text: (§2) PolyQ-htt-GFP fusion constructs, in which the polyglutamine region is encoded by CAA and CAG-containing tandem repeats ([…]) [SEQ ID NO: 1], human polyglutaminen, were obtained from the Hereditary Disease Foundation, Santa Monica, Calif., USA. PC12 and HEK293 cells were maintained in MEM supplemented with 10% v/v FBS, switched to Opti-MEM without serum for 6 hrs during transfection using Lipofectamine 2000 (Invitrogen, Carlsbad, Calif., USA), and returned to serum-containing medium thereafter (up to 48 hours). […] Control cultures received equivalent amounts of DMSO-containing vehicle (<0.1% w/v DMSO, final concentration).
(§3) Concordant with this reduction in mutant protein expression, cell survival was improved by CQ in a dose dependent fashion with a half maximal effect at 1-2 μM (FIG. 2b). Cell death began to increase at 8 μM, likely due to dose-dependent toxic effects of CQ.

R6/2 mice [3] = test: Body weight of R6/2 mice; type: in vivo, mouse; details: 10th and 11th weeks, oral CQ 30 mg/kg/day
Procedure: as §1, with “instructions. […]” for “instructions.”

R6/2 mice [4] = test: Lifespan (survival) of R6/2 mice; type: in vivo, mouse; details: oral CQ 30 mg/kg/day
Procedure: as §1, with “instructions. […]” for “instructions.”

Htt exon1-Q103-egfp = test: Fluorescence microscopy of transiently transfected PC12 cells expressing Htt exon1-Q103-egfp; type: cell-based; details: CQ 4 μM, 48 hours post-transfection
Text: as §2, §3

Htt exon1-Q103-egfp mRNA = test: Northern analysis of Htt exon1-Q103-egfp mRNA; type: cell-based; details: Northern analysis after 48 hrs of transfection
Procedure: Trizol reagent (Invitrogen, Carlsbad, Calif.) was used to isolate total RNA. Ten μg of total RNA was electrophoresed through 1.25% w/v agarose gel and transferred onto Hybond N+membrane. The membrane was baked in an 80° C. oven for 15 min and UV-crosslinked. Exon 1 of htt containing 103 CAA/CAG-repeats was used as a probe for northern blot detection according to AlkPhos Direct Labeling and Detection System (Amersham Biosciences, Piscataway, N.J.). One hundred ng of the probe was hybridized to the membrane in a 60° C. rotating hybridization oven overnight. The membrane was scanned using the Typhoon 9410 digital scanner (Amersham Biosciences, Piscataway, N.J.) to yield the signal image. The experiment was performed three times and band intensities were averaged.
In examining potential mechanisms for the effects of CQ on Htt accumulation, we considered the possibilities that CQ might act to inhibit Htt aggregation or directly influence Htt synthesis or degradation. […] Therefore, we focused on the aspects of Htt synthesis and turnover. To determine whether CQ might down-regulate polyQ-Htt expression at the transcriptional level, we examined the amount of Htt^exon1-Q103-egfp mRNA present after 48 hrs of transfection by Northern analysis. […]

Oc1c(I)cc(Cl)c2cccnc12 [CQ, 5-chloro-7-iodo-8-hydroxy-quinoline]
reduction of lateral ventricle area (R6/2 mice [1]): 55%
fasting blood insulin level (R6/2 mice [2]; CQ treated group): 415 ± 54.6 pg/mL
Insulin level (R6/2 mice [2]; fasting, CQ-treated, mean ± s.e.m. (Table 3)): 415 ± 54.60** pg/ml
fluorescent product of Htt exon1-Q25-egfp (Htt exon1-Q25-egfp): unaffected
body weight (R6/2 mice [3]): significantly greater than untreated animals
average lifespan (R6/2 mice [4]): 92 days
increase in longevity over the littermate control group (R6/2 mice [4]): 20%
fluorescent product of Htt exon1-Q103-egfp (Htt exon1-Q103-egfp): less fluorescent product
effect on Htt exon1-Q103-egfp mRNA levels (Htt exon1-Q103-egfp mRNA): no significant effect
